These results are taken from patent US20130005696A1, “BUFADIENOLIDE DERIVATIVES, PREPARING PROCESS THEREOF, COMPOSITION COMPRISING THE SAME AND THE USE THEREOF” (priority 2011, published 2013).

The first test has as its system HeLa human cervical carcinoma cell line. The experiment in a line: In vitro antitumor activity assay (SRB), HeLa. In kind it is cell-based. To be noted: Table 1, read-out: IC50, inhibitory activity on cell proliferation of HeLa cell line. The text has this: HeLa human cervical carcinoma cell line, A-549 human non-small cell lung carcinoma cell line, NCI-H2228 human lung carcinoma cell line, NCI-H460 human lung carcinoma cell line, MDA-MB-231 human breast carcinoma cell line, MCF-7 human breast carcinoma cell line, Bel-7402 human hepatic carcinoma cell line, Hep3B human hepatic carcinoma cell line, QGY-7703 human hepatic carcinoma cell line, MV-4-11 human leukemic cell line, DAUDI human leukemic cell line, Jurkat human leukemic cell line, A498 renal carcinoma cell line, LoVo human colon carcinoma cell line, HCT1116 human colon carcinoma cell line, A431 human skin carcinoma cell line, PANC-1 human pancreatic carcinoma cell line, U87-MG human brain carcinoma cell line, SH-SY5Y human brain carcinoma cell line, RPMI-8226 human bone carcinoma cell line, HT1080 human fibrosarcoma cell line, PC-3 human prostatic carcinoma cell line, AGS human gastric adenocarcinoma cell line, and BGC-823 human gastric adenocarcinoma cell line were purchased from the Cell Bank of the Chinese Academy of Sciences.
The positive control is bufalin (formulated according to the common method), its purity is 98% or more by HPLC-UV and its structure is identified by NMR. The compounds to be tested and the positive control were diluted with normal saline with a concentration gradient of 10^−4 M, 10^−5 M, 10^−6 M, 10^−7 M and 10^−8 M.
According to cell growth rate, tumor cells in the log phase of growth were seeded into 96-well culture plates at 100 μL per well, and allowed to attach for 24 hours, followed by addition of a test compound or positive control at 10 μL per well. For each concentration, the test was carried out in triplicate wells. Solvent control wells with addition of normal saline into cell culture and a blank well containing only cell culture medium but without cells for zeroing were also included. The tumor cells were incubated for 72 hours at 37° C. under 5% CO2, and then the culture medium (RPMI-1640) was removed. The cells were fixed with 10% cool TCA by incubating for 1 h at 4° C., washed with distilled water for 5 times, and dried naturally in the air. A solution of SRB (Sigma) (4 mg/mL) in 1% glacial acetic acid was added at 100 μL per well, and the cells were stained for 15 minutes at room temperature, and the supernatant was discarded. The plates were washed for 5 times with 1% acetic acid, and dried in air. Finally, Tris solution was added at 150 μL per well, and the absorbance (A) was measured at a wavelength of 515 nm using a microplate reader. The growth inhibition on tumor cell proliferation was calculated according to the following equation:
Growth Inhibition (%)=[(Absorbance of negative control−Absorbance of blank)−(Absorbance of sample−Absorbance of blank)]/(Absorbance of negative control−Absorbance of blank)×100%
Drug concentration: 10 μM, 1 μM, 0.1 μM, 10 nM, 1 nM, 0.1 nM.
IC50 was fitted by GraphPad Prism 4.
For the molecule `C[C@]12CC[C@H](NC(=O)N3CCNCC3)C[C@H]1CC[C@@H]1[C@@H]2CC[C@]2(C)[C@@H](c3ccc(=O)oc3)CC[C@]12O` [III1D-02], the IC50 worked out at 5.68 nM.

The test is the same for the next values; noted with them: read-out: IC50, inhibitory activity on cell proliferation of HeLa cell line.
Turning to `CN(C)CCNC(=O)O[C@H]1CC[C@@]2(C)[C@H](CC[C@@H]3[C@@H]2CC[C@]2(C)[C@@H](c4ccc(=O)oc4)CC[C@]32O)C1` [II1B-01], the IC50 was 1.79 nM.
For `CCN(CCN(C)C)C(=O)O[C@H]1CC[C@@]2(C)[C@H](CC[C@@H]3[C@@H]2CC[C@]2(C)[C@@H](c4ccc(=O)oc4)CC[C@]32O)C1` [II1B-04], the IC50 came out at 2.17 nM.
For the molecule `CCNCCN(CC)C(=O)O[C@H]1CC[C@@]2(C)[C@H](CC[C@@H]3[C@@H]2CC[C@]2(C)[C@@H](c4ccc(=O)oc4)CC[C@]32O)C1` [II1B-06], the IC50 amounted to 1.11 nM.
Consider `CNCCCN(C)C(=O)O[C@H]1CC[C@@]2(C)[C@H](CC[C@@H]3[C@@H]2CC[C@]2(C)[C@@H](c4ccc(=O)oc4)CC[C@]32O)C1` [II1B-07], for which the IC50 amounted to 1.15 nM.
Take `C[C@]12CC[C@H](OC(=O)NCCN)C[C@H]1CC[C@@H]1[C@@H]2CC[C@]2(C)[C@@H](c3ccc(=O)oc3)CC[C@]12O` [II1B-09]: the IC50 was found to be 5.72 nM.
For the molecule `C[C@]12CC[C@H](OC(=O)NCCCN)C[C@H]1CC[C@@H]1[C@@H]2CC[C@]2(C)[C@@H](c3ccc(=O)oc3)CC[C@]12O` [II1B-10], the IC50 is 1.82 nM.
With `CN1CCN(C(=O)O[C@H]2CC[C@@]3(C)[C@H](CC[C@@H]4[C@@H]3CC[C@]3(C)[C@@H](c5ccc(=O)oc5)CC[C@]43O)C2)CC1` [II1D-03], the IC50 turned out to be 3.49 nM.
Consider `C[C@]12CC[C@H](OC(=O)N3CCC(O)CC3)C[C@H]1CC[C@@H]1[C@@H]2CC[C@]2(C)[C@@H](c3ccc(=O)oc3)CC[C@]12O` [II1D-04], for which the IC50 is 38 nM.
Regarding `CCOC(=O)CCNC(=O)N1CCN(C(=O)O[C@H]2CC[C@@]3(C)[C@H](CC[C@@H]4[C@@H]3CC[C@]3(C)[C@@H](c5ccc(=O)oc5)CC[C@]43O)C2)CC1` [II1D-07], the IC50 is 2.6 nM.
In the case of `C[C@]12CC[C@H](OC(=O)N3CCN(S(C)(=O)=O)CC3)C[C@H]1CC[C@@H]1[C@@H]2CC[C@]2(C)[C@@H](c3ccc(=O)oc3)CC[C@]12O` [II1D-10], the IC50 is 16.3 nM.
For the molecule `COC(=O)c1ccccc1S(=O)(=O)N1CCN(C(=O)O[C@H]2CC[C@@]3(C)[C@H](CC[C@@H]4[C@@H]3CC[C@]3(C)[C@@H](c5ccc(=O)oc5)CC[C@]43O)C2)CC1` [II1D-12], the IC50 was 41.8 nM.
For the molecule `CC(=O)N1CCN(C(=O)O[C@H]2CC[C@@]3(C)[C@H](CC[C@@H]4[C@@H]3CC[C@]3(C)[C@@H](c5ccc(=O)oc5)CC[C@]43O)C2)CC1` [II1D-14], the IC50 was 23.1 nM.
For the molecule `C[C@]12CC[C@H](OC(=O)N3CCN(C(=O)c4ccccc4)CC3)C[C@H]1CC[C@@H]1[C@@H]2CC[C@]2(C)[C@@H](c3ccc(=O)oc3)CC[C@]12O` [II1D-16], the IC50 was 44.6 nM.
Still for that read-out and setting: with `C[C@]12CC[C@H](OC(=O)N3CCNC3)C[C@H]1CC[C@@H]1[C@@H]2CC[C@]2(C)[C@@H](c3ccc(=O)oc3)CC[C@]12O` [II1D-19] the figure was 5.8 nM.
On to `CNC1CCN(C(=O)O[C@H]2CC[C@@]3(C)[C@H](CC[C@@H]4[C@@H]3CC[C@]3(C)[C@@H](c5ccc(=O)oc5)CC[C@]43O)C2)CC1` [II1D-22], for which the IC50 amounted to 7.34 nM.
Regarding `CCNC1CCN(C(=O)O[C@H]2CC[C@@]3(C)[C@H](CC[C@@H]4[C@@H]3CC[C@]3(C)[C@@H](c5ccc(=O)oc5)CC[C@]43O)C2)CC1` [II1D-23], the IC50 is 1.12 nM.
On the same count and under the same terms, with `C[C@]12CC[C@H](OC(=O)N3CCC(NCCO)CC3)C[C@H]1CC[C@@H]1[C@@H]2CC[C@]2(C)[C@@H](c3ccc(=O)oc3)CC[C@]12O` [II1D-24] the figure was 7.3 nM; with `CN(C)C1CCN(C(=O)O[C@H]2CC[C@@]3(C)[C@H](CC[C@@H]4[C@@H]3CC[C@]3(C)[C@@H](c5ccc(=O)oc5)CC[C@]43O)C2)CC1` [II1D-25], 5.44 nM.
On the same count and under the same terms, with `C[C@]12CC[C@H](OC(=O)NCC3CCNCC3)C[C@H]1CC[C@@H]1[C@@H]2CC[C@]2(C)[C@@H](c3ccc(=O)oc3)CC[C@]12O` [II1E-02] the figure was 4.31 nM; with `CN1CCN(C(=O)N[C@H]2CC[C@@]3(C)[C@H](CC[C@@H]4[C@@H]3CC[C@]3(C)[C@@H](c5ccc(=O)oc5)CC[C@]43O)C2)CC1` [III1D-03], 41.6 nM.
With `C[C@]12CC[C@H](NC(=O)N3CCCNCC3)C[C@H]1CC[C@@H]1[C@@H]2CC[C@]2(C)[C@@H](c3ccc(=O)oc3)CC[C@]12O` [III1D-04], the IC50 amounted to 3.98 nM.
Take `C[C@]12CC[C@H](NC(=O)NC3CCNCC3)C[C@H]1CC[C@@H]1[C@@H]2CC[C@]2(C)[C@@H](c3ccc(=O)oc3)CC[C@]12O` [III1E-01]: the IC50 came to 7.2 nM.
Regarding `C[C@]12CC[C@H](NC(=O)NCC3CCCCN3)C[C@H]1CC[C@@H]1[C@@H]2CC[C@]2(C)[C@@H](c3ccc(=O)oc3)CC[C@]12O` (some centres unmarked) [III1E-02], the IC50 was found to be 8.68 nM.

For another test, the system named is human non-small cell lung carcinoma A549 xenograft. The experiment in a line: In vivo therapeutic effect against A549 xenograft in nude mice. To be noted: A549 xenograft in nude mice; bufalin at 1.6 mg/kg. How it is done: This experiment is to evaluate the in vivo therapeutic effects of compounds bufalin, II1D-06.HCl, II1E-01.HCl and II1B-02.HCl against human-derived lung carcinoma A549 cell xenograft in nude mice.
Solvent control: 4% DMSO & 2% Tween-80 & 5% PEG-400 solution in normal saline
Compounds to be tested: bufalin, II1B-02.HCl, II1E-01.HCl, II1D-06.HCl
Formulating method: the compound was dissolved with DMSO into a stock solution, which was then diluted into an injection with a final DMSO concentration of 4%.
Positive control: Rapamycin Formulating method: it was formulated into an injection with a final DMSO concentration of 4%.
After the tumor size reaches about 200 mm^3, the mice bearing the tumor were grouped randomly into 8 groups according to the tumor size, including the groups of solvent control, positive control rapamycin 5 mg/kg, II1E-01.HCl 2 mg/kg, II1E-01.HCl 4 mg/kg, II1E-01.HCl 6 mg/kg, II1B-02.HCl 4 mg/kg, II1D-06.HCl 4 mg/kg, bufalin 1.6 mg/kg, wherein the dosage selection is based on that the maximum tolerable dosage is 1.6 mg/kg for bufalin and 6 mg/kg for II1E-01.HCl. Rapamycin was administered intravenously once a week (QW) and the other groups were administered intraperitoneally once every other day (QOD). The tumor was weighted after 21 days to calculate the inhibition rate. The equation for calculating inhibition rate (IR) is IR=(WC−WT)/WC×100%, wherein, WC represents the tumor weight of the control group, and WT represents the tumor weight of the treating group.
In the case of `CCN(CC)CCNC(=O)O[C@H]1CC[C@@]2(C)[C@H](CC[C@@H]3[C@@H]2CC[C@]2(C)[C@@H](c4ccc(=O)oc4)CC[C@]32O)C1.Cl` [II1B-02•HCl], the “inhibition of growth of human lung carcinoma A549 xenograft, in words” value is “significantly inhibit the growth”.

Staying with this test, now noted: A549 xenograft, 4 mg/kg ip QOD, after 21 days.
`CCN(CC)CCNC(=O)O[C@H]1CC[C@@]2(C)[C@H](CC[C@@H]3[C@@H]2CC[C@]2(C)[C@@H](c4ccc(=O)oc4)CC[C@]32O)C1.Cl` [II1B-02•HCl]: the “Inhibition Rate (%)” value is 58.34% and the “Tumor Weight(g) Mean ± SE” value was 0.7013 ± 0.0707 g.
Regarding `C[C@]12CC[C@H](OC(=O)N3CCCNCC3)C[C@H]1CC[C@@H]1[C@@H]2CC[C@]2(C)[C@@H](c3ccc(=O)oc3)CC[C@]12O.Cl` [II1D-06•HCl], the “Inhibition Rate (%)” value is recorded as 37.15% and the “Tumor Weight(g) Mean ± SE” value is 1.0580 ± 0.0866 g.
